Data published in patent publication US9061076B2, “Viral nanoparticle cell-targeted delivery platform” (North Carolina State University, priority 2007, dated 2015).

B1: PVN-CAR-F: native RCNMV conjugated via SMCC with fluorescein-labeled CAR targeting peptide (conjugate)
chain: LSITTPEEMIEKAKGETAYLPCKFTLSPEDQGPLDIEWLISPADNQKVDQVIILYSGDKIYDDYYPDLKGRVHFTSNDLKSGDASINVTNLQLSDIGTYQCKVKKAPGVANKKIHLVVLVKPSGARCYVDGSEEIGSDFKIKCEPKEGSLPLQYEWQKLSDSQKMPTSWLAEMTSSVISVKNASSEYSGTYSCTVRNRVGSDQCLLRLNVVPPSNKAGLIAGAIIGTLLALALIGLIIFCCRKKRREEKYEKEVHHDIREDVPPPKSRTSTARSYIGSNHSSLGSMSPSNMEGYSKTQYNQVPSEDFERTPQSPTLPPAKVAAPNLSRMGAIPVMIPAQSKDGSIV

Assays:
HeLa cells [1] = assay: MTT cell viability assay; assay type: cell-based; conditions: 7 uM DOX, 24 hours
Protocol: The effect of DOX-PVN-CD46 on cell viability was measured using an MTT assay (FIG. 10A). HeLa cells were exposed to a free DOX, DOX-PVN, and DOX-PVN-CD46 for 24 hours at DOX concentrations ranging from 0.01 uM to 12 uM prior assaying. […] On the other hand, the percentage of viable cell was approximately 70-80% when the same concentration of free DOX (7 uM) was delivered to the cells. […] The PVN has two desirable properties as a drug delivery platform. First, it sequesters drugs effectively in blood and other biofluids. Second, it delivers drugs inside cells triggered by divalent ion concentration and with a timed release that increases the efficacy of drugs that rely on interactions with DNA. FACS was used to determine the dose-response of DOX-PVN-CD46-F after a 2-hour exposure (FIG. 10B). Cell detachment is an early sign of apoptosis. One method to determining cell survival is to count the number of adherent cells. At a PVN concentration of 1 pM, the number of adherent cells is reduced by approximately 25% (FIG. 10B). The FACS experiments in the lower panel of FIG. 10B counts only the adherent cells. Thus, the reduction in viable (adherent) cells accounts for the low levels of PVN internalization measured by fluorescence intensity. The number of adherent cells decreases to 50% at a DOX-PVN-CD46-F concentration of 100 μM (data not shown).

HeLa cells [2] = assay: PVN internalization by FACS / fluorescent microscopy; assay type: cell-based
Protocol: Flow cytometry measurements were carried out with the Becton Dickinson FACSCalibur® running Cellquest Pro. Flow cytometry is sometimes referred to as “FACS” herein. The positive population of cells is determined by gating the right-hand tail of the distribution of the negative control sample for each individual cell line at 1%. This setting can then used to determine the percentage of positive cells for each of the above markers for each individual cell line.
We have observed that PVNs with targeting peptides attached to the surface can be internalized into mammalian cells. […] Surface coverage can be determined in a fluorometer using a fluorescein standard curve to quantify the number of fluorophores in the sample and the UV-vis spectrum to quantify the concentration of RCNMV. Based on the measured fluorescence, we determined that the surface of the PVN was labeled with approximately 60 CD46-F peptides. The endocytosis of these formulations was detected using fluorescent microscopy and FACS. FACS quantifies PVN cellular uptake and cargo release in a two-channel fluorescence measurement on populations of hundreds of thousands of cells. […]

Molecule	percentage of viable cells (HeLa cells [1])	internalization in HeLa versus HepG2 cell lines (HeLa cells [2])
COc1cccc2c1C(=O)c1c(O)c3c(c(O)c1C2=O)C[C@@](O)(C(=O)CO)C[C@@H]3O[C@H]1C[C@H](N)[C@H](O)[C@H](C)O1 [DOX, doxorubicin]	70-80%	
B1		nearly the same level of internalization
